Assay results: ChEMBL document CHEMBL5728291, “Pyrazole MAGL inhibitors” (2021)

Biological target: T1, Monoglyceride lipase (Homo sapiens, UniProt Q99685)
T1 sequence (Q99685 whole entry): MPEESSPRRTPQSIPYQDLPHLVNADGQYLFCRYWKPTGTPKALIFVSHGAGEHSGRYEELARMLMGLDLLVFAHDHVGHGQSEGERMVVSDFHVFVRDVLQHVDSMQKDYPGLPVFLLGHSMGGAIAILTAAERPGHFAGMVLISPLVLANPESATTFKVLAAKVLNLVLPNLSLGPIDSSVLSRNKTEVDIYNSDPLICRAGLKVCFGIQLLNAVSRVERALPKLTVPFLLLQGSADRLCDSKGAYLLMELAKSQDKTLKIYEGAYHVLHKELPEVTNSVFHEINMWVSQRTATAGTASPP
Test: In Vitro Competitive Activity-Based Protein Profiling: Proteomes (mouse brain membrane fraction for mouse assays; human prefrontal cortex membrane fractions for human assays) (50 mL, 1.0 mg/mL total protein concentration) were preincubated with varying concentrations of inhibitors at 37° C. After 30 min, FP-Rh (1.0 mL, 50 mM in DMSO) was added and the mixture was incubated for another 30 min at 37° C.

- IC50: < 100 nM
Compound: O=C(O)c1ccn(C(=O)N2C[C@H]3C[C@H](Oc4cc(Cl)ccc4C(F)(F)F)C[C@H]3C2)n1
